Data as given in patent publication US20070093520A1, “Method of treatment of diarrhea-predominant irritable bowel syndrome in a subject” (priority 2005, published 2007).

System: diarrhea-predominant IBS subjects
Test: 3007 Study: open-label 52-week safety study, adverse events and withdrawals
Conditions: Overall

## Cc1nccn1C[C@H]1CCc2c(c3cccc4c3n2CCC4)C1=O [cilansetron, (R)-(−)-4,5,6,8,9,10-hexahydro-10-[(2-methyl-1H-imidazol-1-yl)methyl]-11H-pyrido-[3,2,1-jk]-carbazol-11-one]
  TEAE: Memory Loss (Excl Dementia): 1 (<1%) n (%)
  TEAE: Meniere's Disease: 1 (<1%) n (%)
  TEAE: Menorrhagia*: 2 (<1%) n (%)
  TEAE: Menstruation Irregular*: 1 (<1%) n (%)
  TEAE: Menstruation and Uterine Bleeding NEC*: 2 (<1%) n (%)
  TEAE: Menstruation with Decreased Bleeding*: 1 (<1%) n (%)
  TEAE: Menstruation with Increased Bleeding*: 3 (<1%) n (%)
  TEAE: Mental Disorders NEC: 1 (<1%) n (%)
  TEAE: Mental Status Changes: 1 (<1%) n (%)
  TEAE: Metabolic Bone Disorders: 3 (<1%) n (%)
  TEAE: Metabolism Tests NEC: 6 (1%) n (%)
  TEAE: Metabolism and Nutrition Disorders: 21 (4%) n (%)
  TEAE: Middle Ear Disorders NEC: 1 (<1%) n (%)
  TEAE: Migraine Headaches: 5 (<1%) n (%)
  TEAE: Migraine NOS: 5 (<1%) n (%)
  TEAE: Mineral and Electrolyte Analyses: 2 (<1%) n (%)
  TEAE: Monoarthritis: 2 (<1%) n (%)
  TEAE: Monocyte Count Decreased: 2 (<1%) n (%)
  TEAE: Monocyte Count Increased: 2 (<1%) n (%)
  TEAE: Mononeuropathies: 3 (<1%) n (%)
  TEAE: Motion Sickness: 1 (<1%) n (%)
  TEAE: Movement Disorder NOS: 1 (<1%) n (%)
  TEAE: Muscle Cramps: 10 (2%) n (%)
  TEAE: Muscle Infections and Inflammations: 1 (<1%) n (%)
  TEAE: Muscle Pains: 3 (<1%) n (%)
  TEAE: Muscle Related Signs and Symptoms NEC: 11 (2%) n (%)
  TEAE: Muscle Spasms: 1 (<1%) n (%)
  TEAE: Muscle Strain: 8 (1%) n (%)
  TEAE: Muscle Tone Abnormalities: 1 (<1%) n (%)
  TEAE: Muscle, Tendon and Ligament Injuries: 10 (2%) n (%)
  TEAE: Musculoskeletal Chest Pain: 1 (<1%) n (%)
  TEAE: Musculoskeletal and Connective Tissue Disorders: 87 (16%) n (%)
  TEAE: Musculoskeletal and Connective Tissue Signs and Symptoms NEC: 33 (6%) n (%)
  TEAE: Musculoskeletal and Soft Tissue Imaging Procedures: 1 (<1%) n (%)
  TEAE: Myalgia: 2 (<1%) n (%)
  TEAE: Myasthenia Gravis: 1 (<1%) n (%)
  TEAE: Mycoplasma Infections: 1 (<1%) n (%)
  TEAE: Myeloradiculopathy: 1 (<1%) n (%)
  TEAE: Myocardial Infarction: 1 (<1%) n (%)
  TEAE: Myositis: 1 (<1%) n (%)
  TEAE: Nail Fungal Infection NOS: 2 (<1%) n (%)
  TEAE: Nail Infection NOS: 1 (<1%) n (%)
  TEAE: Nail and Nail Bed Conditions (Excl Infections and Infestations): 1 (<1%) n (%)
  TEAE: Nasal Congestion and Inflammations: 8 (1%) n (%)
  TEAE: Nasopharyngitis: 28 (5%) n (%)
  TEAE: Nausea: 25 (5%) n (%)
  TEAE: Nausea and Vomiting Symptoms: 33 (6%) n (%)
  TEAE: Neck Pain: 1 (<1%) n (%)
  TEAE: Neoplasms Benign Site Unspecified NEC: 2 (<1%) n (%)
  TEAE: Neoplasms Benign, Malignant and Unspecified (Incl Cysts and Polyps): 15 (3%) n (%)
  TEAE: Nervous System Disorders: 64 (12%) n (%)
  TEAE: Neurological Signs and Symptoms NEC: 6 (1%) n (%)
  TEAE: Neuromuscular Junction Dysfunction: 1 (<1%) n (%)
  TEAE: Neutrophil Count Decreased: 3 (<1%) n (%)
  TEAE: Night Cramps: 1 (<1%) n (%)
  TEAE: Nitrite Urine Present: 2 (<1%) n (%)
  TEAE: Non-Accidental Overdose: 1 (<1%) n (%)
  TEAE: Non-Site Specific Injuries NEC: 11 (2%) n (%)
  TEAE: Non-Site Specific Procedural Complications: 8 (1%) n (%)
  TEAE: Normal Pregnancy, Labour and Delivery*: 1 (<1%) n (%)
  TEAE: Ocular Disorders NEC: 1 (<1%) n (%)
  TEAE: Ocular Nerve and Muscle Disorders: 2 (<1%) n (%)
  TEAE: Oedema NEC: 7 (1%) n (%)
  TEAE: Oedema NOS: 1 (<1%) n (%)
  TEAE: Oedema Peripheral: 6 (1%) n (%)
  TEAE: Ophthalmic Function Diagnostic Procedures: 2 (<1%) n (%)
  TEAE: Oral Dryness and Saliva Altered: 2 (<1%) n (%)
  TEAE: Osteoarthritis Aggravated: 3 (<1%) n (%)
  TEAE: Osteoarthropathies: 4 (<1%) n (%)
  TEAE: Osteopenia: 1 (<1%) n (%)
  TEAE: Osteoporosis NOS: 3 (<1%) n (%)
  TEAE: Otitis Media NOS: 1 (<1%) n (%)
  TEAE: Ovarian Cancer NOS*: 1 (<1%) n (%)
  TEAE: Ovarian Cystadenofibroma*: 1 (<1%) n (%)
  TEAE: Ovarian Neoplasms Benign*: 1 (<1%) n (%)
  TEAE: Ovarian Neoplasms Malignant (Excl Germ Cell)*: 1 (<1%) n (%)
  TEAE: Overdoses: 1 (<1%) n (%)
  TEAE: Pain NOS: 3 (<1%) n (%)
  TEAE: Pain and Discomfort NEC: 12 (2%) n (%)
  TEAE: Pain in Limb: 6 (1%) n (%)
  TEAE: Palpitations: 4 (<1%) n (%)
  TEAE: Panic Attack: 1 (<1%) n (%)
  TEAE: Panic Symptoms: 1 (<1%) n (%)
  TEAE: Papulosquamous Conditions: 1 (<1%) n (%)
  TEAE: Paraesthesias and Dysaesthesias: 2 (<1%) n (%)
  TEAE: Paranasal Sinus Disorders (Excl Infections and Neoplasms): 9 (2%) n (%)
  TEAE: Paranasal Sinus Hypersecretion: 1 (<1%) n (%)
  TEAE: Parkinson's Disease NOS: 1 (<1%) n (%)
  TEAE: Parkinson's Disease and Parkinsonism: 1 (<1%) n (%)
  TEAE: Partial Vision Loss: 1 (<1%) n (%)
  TEAE: Pelvic Pain NOS: 2 (<1%) n (%)
  TEAE: Penile Disorders NEC (Excl Erection and Ejaculation)*: 1 (<1%) n (%)
  TEAE: Penile Haemorrhage*: 1 (<1%) n (%)
  TEAE: Perception Disturbances: 1 (<1%) n (%)
  TEAE: Periorbital Haematoma: 1 (<1%) n (%)
  TEAE: Peripheral Embolism NOS: 1 (<1%) n (%)
  TEAE: Peripheral Embolism and Thrombosis: 1 (<1%) n (%)
  TEAE: Peripheral Swelling: 1 (<1%) n (%)
  TEAE: Peripheral Vascular Disorders NEC: 2 (<1%) n (%)
  TEAE: Pharyngitis: 6 (1%) n (%)
  TEAE: Pharyngitis Streptococcal: 7 (1%) n (%)
  TEAE: Physical Examination Procedures: 9 (2%) n (%)
  TEAE: Plantar Fasciitis: 4 (<1%) n (%)
  TEAE: Pneumonia Mycoplasmal: 1 (<1%) n (%)
  TEAE: Pneumonia NOS: 2 (<1%) n (%)
  TEAE: Polydipsia: 1 (<1%) n (%)
  TEAE: Polyuria: 1 (<1%) n (%)
  TEAE: Popliteal Bursitis: 1 (<1%) n (%)
  TEAE: Post Procedural Discomfort: 2 (<1%) n (%)
  TEAE: Post Procedural Pain: 6 (1%) n (%)
  TEAE: Posterior Capsule Opacification: 1 (<1%) n (%)
  TEAE: Postnasal Drip: 1 (<1%) n (%)
  TEAE: Pregnancy NOS*: 1 (<1%) n (%)
  TEAE: Pregnancy, Puerperium and Perinatal Conditions: 1 (<1%) n (%)
  TEAE: Premenopause*: 1 (<1%) n (%)
  TEAE: Premenstrual Syndrome*: 1 (<1%) n (%)
  TEAE: Proctalgia: 4 (<1%) n (%)
  TEAE: Productive Cough: 1 (<1%) n (%)
  TEAE: Prostate and Seminal Vesicles Infections and Inflammations*: 3 (2%) n (%)
  TEAE: Prostatitis*: 3 (2%) n (%)
  TEAE: Protein Urine Present: 3 (<1%) n (%)
  TEAE: Proteinuria: 1 (<1%) n (%)
  TEAE: Pruritus Ani: 1 (<1%) n (%)
  TEAE: Pruritus NEC: 4 (<1%) n (%)
  TEAE: Pruritus NOS: 4 (<1%) n (%)
  TEAE: Psoriasis: 1 (<1%) n (%)
  TEAE: Psychiatric Disorders: 32 (6%) n (%)
  TEAE: Psychotic Disorder NEC: 1 (<1%) n (%)
  TEAE: Psychotic Disorder NOS: 1 (<1%) n (%)
  TEAE: Purine Metabolism Disorders NEC: 2 (<1%) n (%)
  TEAE: Pyrexia: 3 (<1%) n (%)
  TEAE: Rash Macular: 2 (<1%) n (%)
  TEAE: Rash NOS: 6 (1%) n (%)
  TEAE: Rashes, Eruptions and Exanthems NEC: 8 (1%) n (%)
  TEAE: Rate and Rhythm Disorders NEC: 4 (<1%) n (%)
  TEAE: Rectal Cramps: 1 (<1%) n (%)
  TEAE: Rectal Disorder NOS: 1 (<1%) n (%)
  TEAE: Rectal Haemorrhage: 8 (1%) n (%)
  TEAE: Rectal Tenesmus: 2 (<1%) n (%)
  TEAE: Red Blood Cell Analyses: 1 (<1%) n (%)
  TEAE: Red Blood Cells Urine: 1 (<1%) n (%)
  TEAE: Refractive Errors NOS: 1 (<1%) n (%)
  TEAE: Refractive and Accommodative Disorders: 1 (<1%) n (%)
  TEAE: Renal Bruit: 1 (<1%) n (%)
  TEAE: Renal Function Analyses: 4 (<1%) n (%)
  TEAE: Renal Lithiasis: 3 (<1%) n (%)
  TEAE: Renal and Urinary Disorders: 17 (3%) n (%)
  TEAE: Reproductive Organ and Breast Histopathology Procedures: 1 (<1%) n (%)
  TEAE: Reproductive System and Breast Disorders: 24 (4%) n (%)
  TEAE: Reproductive Tract Signs and Symptoms NEC: 3 (<1%) n (%)
  TEAE: Respiratory Tract Congestion: 2 (<1%) n (%)
  TEAE: Respiratory Tract Disorders NEC: 2 (<1%) n (%)
  TEAE: Respiratory Tract Infection NOS: 1 (<1%) n (%)
  TEAE: Respiratory, Thoracic and Mediastinal Disorders: 46 (9%) n (%)
  TEAE: Retinal Detachment: 1 (<1%) n (%)
  TEAE: Retinal Structural Change, Deposit and Degeneration: 1 (<1%) n (%)
  TEAE: Rheumatoid Arthritis: 1 (<1%) n (%)
  TEAE: Rheumatoid Arthritis Aggravated: 1 (<1%) n (%)
  TEAE: Rheumatoid Arthropathies: 2 (<1%) n (%)
  TEAE: Rhinitis Allergic NOS: 4 (<1%) n (%)
  TEAE: Rhinitis NOS: 3 (<1%) n (%)
  TEAE: Rhinitis Seasonal: 1 (<1%) n (%)
  TEAE: Rhinoviral Infections: 28 (5%) n (%)
  TEAE: Rib Fracture: 1 (<1%) n (%)
  TEAE: Road Traffic Accident: 1 (<1%) n (%)
  TEAE: Rosacea: 1 (<1%) n (%)
  TEAE: Rosaceas: 1 (<1%) n (%)
  TEAE: Rotator Cuff Syndrome: 1 (<1%) n (%)
  TEAE: Seasonal Allergy: 5 (<1%) n (%)
  TEAE: Seizures and Seizure Disorders NEC: 1 (<1%) n (%)
